Assay results taken from paper PMC6253998, “Ring-substituted 4-Hydroxy-1H-quinolin-2-ones: Preparation and Biological Activity” (Molecules, 2009).
Values joined by “and” are separate entries in the source; they are usually repeats but may differ in a detail not shown here. Identical values can stand only once. Like-named read-outs stand apart in the source and are kept apart here.

What was measured:
[1] = test system: Candida albicans ATCC 44859; test: In vitro antifungal broth microdilution test; format: cell-based; conditions: Candida albicans, ATCC44859, RPMI 1640, pH 7.0, 35 °C, read-out: MIC/IC80 CA
Experimental: (§1) Fluconazole (FLU) was used as the standard of a clinically used antimycotic drug. The procedure was performed with twofold dilution of the compounds in […]., Prague, Czech Republic) buffered to pH 7.0 with 0.165 mol of 3-morpholino-propane-1-sulfonic acid (MOPS, Sigma, Germany). […] Drug-free controls were included. The MIC was defined as an 80% or greater (IC80) reduction of growth in comparison with the control.

Candida glabrata 20/I = test: In vitro antifungal broth microdilution test; format: cell-based; conditions: Nakaseomyces glabratus, 20/I, RPMI 1640, pH 7.0, 35 °C, read-out: MIC/IC80 CG
Experimental: as §1

[2] = test system: Aspergillus fumigatus 231; test: In vitro antifungal broth microdilution test; format: cell-based; conditions: Aspergillus fumigatus, 231, RPMI 1640, pH 7.0, 35 °C, read-out: MIC/IC80 AF
Experimental: as §1

Candida krusei ATCC 6258 = test: In vitro antifungal broth microdilution test; format: cell-based; conditions: Pichia kudriavzevii, ATCC6258, RPMI 1640, pH 7.0, 35 °C, read-out: MIC/IC80 CK
Experimental: as §1

Absidia corymbifera 272 = test: In vitro antifungal broth microdilution test; format: cell-based; conditions: Lichtheimia corymbifera, 272, RPMI 1640, pH 7.0, 35 °C, read-out: MIC/IC80 AC
Experimental: as §1

[3] = test system: Trichophyton mentagrophytes 445; test: In vitro antifungal broth microdilution test; format: cell-based; conditions: Trichophyton mentagrophytes, 445, RPMI 1640, pH 7.0, 35 °C, read-out: MIC/IC80 TM
Experimental: as §1

Candida tropicalis 156 = test: In vitro antifungal broth microdilution test; format: cell-based; conditions: Candida tropicalis, 156, RPMI 1640, pH 7.0, 35 °C, read-out: MIC/IC80 CT
Experimental: as §1

spinach chloroplasts [4] = test: Inhibition of oxygen evolution rate (OER) / photosynthetic electron transport in spinach chloroplasts; format: biochemical, Spinacia oleracea L.; conditions: for IC50: DCPIP photoreduction, pH 7.2
Experimental: Chloroplasts were prepared from spinach (Spinacia oleracea L.) according to Masarovicova and Kralova. The inhibition of photosynthetic electron transport (PET) in spinach chloroplasts was determined spectrophotometrically (Genesys 6, Thermo Scientific, U.S.A.) using an artificial electron acceptor 2,6-dichlorophenol-indophenol (DCPIP) according to Kralova et al. and the rate of photosynthetic electron transport was monitored as a photoreduction of DCPIP. The measurements were carried out in phosphate buffer (0.02 mol/L, pH 7.2) containing sucrose (0.4 mol/L), MgCl2 (0.005 mol/L) and NaCl (0.015 mol/L). The chlorophyll content was 30 mg/L in these experiments and the samples were irradiated (~100 W/m^2) from 10 cm distance with a halogen lamp (250 W) using a 4 cm water filter to prevent warming of the samples (suspension temperature 22 °C). The studied compounds were dissolved in DMSO due to their limited water solubility. […] The inhibitory efficiency of the studied compounds was expressed by IC50 values, i.e. by molar concentration of the compounds causing 50% decrease in the oxygen evolution rate relative to the untreated control.

[5] = Lipophilicity HPLC determination (capacity factor k / log k); format: physicochemical; conditions: RP-HPLC, C18 column, MeOH 55.0% / H2O 45.0%, isocratic
Experimental: Hydrophobicities (log P/Clog P values) of the compounds 1-12 were calculated using two commercially available programs and also measured by means of the reversed phase high performance liquid chromatography (RP-HPLC) method for lipophilicity measurement. The procedure was performed under isocratic conditions with methanol as an organic modifier in the mobile phase using an end-capped non-polar C18 stationary RP column. The capacity factors k were determined and subsequent log k values were calculated.
The HPLC separation module Waters Alliance 2695 XE and Waters Photodiode Array Detector 2996 (Waters Corp., Milford, MA, U.S.A.) were used. A Symmetry® C18 5 μm, 4.6 × 250 mm, Part No. WAT054275, (Waters Corp., Milford, MA, U.S.A.) chromatographic column was used. The HPLC separation process was monitored by Millennium32® Chromatography Manager Software, Waters 2004 (Waters Corp., Milford, MA, U.S.A.). The mixture of MeOH p.a. (55.0%) and H2O-HPLC – Mili-Q Grade (45.0%) was used as a mobile phase. The total flow of the column was 0.9 mL/min, injection 30 μL, column temperature 30 °C and sample temperature 10 °C. The detection wavelength 210 nm was chosen. The KI methanolic solution was used for the dead time (TD) determination. Retention times (tR) were measured in minutes. The capacity factors k were calculated using the Millennium32® Chromatography Manager Software according to formula k = (tR - tD) / tD, where tR is the retention time of the solute, whereas tD denotes the dead time obtained via an unretained analyte. Log k, calculated from the capacity factor k, is used as the lipophilicity index converted to log P scale.

[6] = test system: Trichosporon beigelii 1188; test: In vitro antifungal broth microdilution test; format: cell-based; conditions: Trichosporon beigelii, 1188, RPMI 1640, pH 7.0, 35 °C, read-out: MIC/IC80 TB
Experimental: The broth microdilution test was used for the assessment of in vitro antifungal activity of the synthesized compounds against Candida albicans ATCC 44859 (CA), Candida tropicalis 156 (CT), Candida krusei ATCC 6258 (CK), Candida glabrata 20/I (CG), Trichosporon beigelii 1188 (TB), Aspergillus fumigatus 231 (AF), Absidia corymbifera 272 (AC), and Trichophyton mentagrophytes 445 (TM). Fluconazole (FLU) was used as the standard of a clinically used antimycotic drug. The procedure was performed with twofold dilution of the compounds in RPMI 1640 (Sevapharma a.s., Prague, Czech Republic) buffered to pH 7.0 with 0.165 mol of 3-morpholino-propane-1-sulfonic acid (MOPS, Sigma, Germany). The final concentrations of the compounds ranged from 500 to 0.975 μmol/l. Drug–free controls were included. The MIC was defined as an 80% or greater (IC80) reduction of growth in comparison with the control. The values of MICs were determined after 24 and 48 h of static incubation at 35 °C. For T. mentagrophytes, the final MICs were determined after 72 and 120 h of incubation.

spinach chloroplasts [7] = test system: spinach chloroplasts; design: method as in earlier work; conditions: standard, read-out: OER inhibition IC50; cited from earlier work

Row | SMILES | MIC ([1]; 24h) [µM] | MIC ([1]; 48h) [µM] | MIC (Candida glabrata 20/I; 24h) [µM] | MIC (Candida glabrata 20/I; 48h) [µM] | MIC ([2]; 24h) [µM] | MIC ([2]; 48h) [µM] | MIC (Candida krusei ATCC 6258; 24h) [µM] | MIC (Candida krusei ATCC 6258; 48h) [µM] | MIC (Absidia corymbifera 272; 24h) [µM] | MIC (Absidia corymbifera 272; 48h) [µM] | MIC ([3]; 72h) [µM] | MIC ([3]; 120h) [µM] | MIC (Candida tropicalis 156; 24h) [µM] | MIC (Candida tropicalis 156; 48h) [µM] | OER inhibition effectiveness relative to compound 1 (spinach chloroplasts [4]) | IC50 (spinach chloroplasts [4]) [µM] | log k [5] | MIC ([6]; 24h) [µM] | MIC ([6]; 48h) [µM] | IC50 (spinach chloroplasts [7])
1 | CCOC(=O)c1c(O)c2ccccc2[nH]c1=O [Compound 9, Ethyl 4-hydroxy-2-oxo-1,2-dihydroquinoline-3-carboxylate] | > 500 | > 500 | > 500 | > 500 | > 500 | > 500 | > 500 | > 500 | > 500 | > 500 | > 500 | > 500 | > 500 | > 500 | approximately twice as effective as compound 1 | 494 | 0.4595 | > 500 | > 500 | –
2 | O=C(O)c1c(O)c2ccccc2[nH]c1=O [Compound 10, 4-Hydroxy-2-oxo-1,2-dihydroquinoline-3-carboxylic acid] | > 500 | > 500 | > 500 | > 500 | > 500 | > 500 | > 500 | > 500 | > 500 | > 500 | > 500 | > 500 | > 500 | > 500 | – | 567 | 0.0118 | > 500 | > 500 | –
3 | O=C(O)c1ccc(NC(=O)c2c(O)c3cc(C(=O)O)ccc3[nH]c2=O)cc1 [Compound 11, 3-(4-Carboxyphenylcarbamoyl)-4-hydroxy-2-oxo-1,2-dihydroquinoline-6-carboxylic acid] | > 500 | > 500 | > 500 | > 500 | > 500 | > 500 | > 500 | > 500 | > 500 | > 500 | > 500 | > 500 | > 500 | > 500 | – | 380 | 0.0081 | > 500 | > 500 | –
4 | CN(C)C(=O)Nc1ccc(Cl)c(Cl)c1 [DCMU, 3-(3,4-dichlorophenyl)-1,1-dimethylurea] | – | – | – | – | – | – | – | – | – | – | – | – | – | – | – | – | – | – | – | ~1.9 µM and 1.9 µM
